In ChEMBL document CHEMBL3259665, “Development of bacterial transglycosylase inhibitors as new antibiotics: moenomycin A treatment for drug-resistant Helicobacter pylori” (Bioorg Med Chem Lett, 2014) one finds MIC90, Kd and MIC data, which are given here for five molecules.

Each structure is given as a SMILES string. ≈ marks a conversion by molar mass, not a printed value.

In experiment [1] the test system is Helicobacter pylori. Kind of experiment: Antimicrobial activity against Helicobacter pylori isolated from gastrointestinal disease patient after 72 hrs by Etest method. It is filed as functional.
Experiment [2] is described as follows: Binding affinity to Helicobacter pylori transglycosylase.
Experiment [3] concerns Helicobacter pylori. Description: Antimicrobial activity against Helicobacter pylori. It is filed as functional.

Usually MIC90 stands for an inhibitory concentration at the 90% level, which refers to growth in some studies and to a panel of isolates in others. A higher MIC90 goes with weaker potency. Take `CC[C@H]1OC(=O)[C@H](C)[C@@H](O[C@H]2C[C@@](C)(OC)[C@@H](O)[C@H](C)O2)[C@H](C)[C@@H](O[C@@H]2O[C@H](C)C[C@H](N(C)C)[C@H]2O)[C@](C)(OC)C[C@@H](C)C(=O)[C@H](C)[C@@H](O)[C@]1(C)O` [CLARITHROMYCIN]: the MIC90 in experiment [1] was found to be 8 µg/mL (≈ 10.7 µM). For `C[C@H]1COc2c(N3CCN(C)CC3)c(F)cc3c(=O)c(C(=O)O)cn1c23.C[C@H]1COc2c(N3CCN(C)CC3)c(F)cc3c(=O)c(C(=O)O)cn1c23.O` [LEVOFLOXACIN], the MIC90 in experiment [1] was determined as 1 µg/mL. On the same count and under the same terms, with `Cc1ncc([N+](=O)[O-])n1CCO` [METRONIDAZOLE] the figure was 16 µg/mL (≈ 93.5 µM). By Kd is commonly meant a measure of binding affinity in units of concentration. A lower Kd goes with a tighter complex. The term MIC denotes the least concentration at which growth counts as inhibited. The low end stands for greater potency, the high end for weaker potency. Take `C=C(C/C=C(\C)CCC=C(C)C)CCC(C)(C)/C=C/CC/C(C)=C/CO[C@@H](COP(=O)(O)O[C@H]1O[C@H](C(N)=O)[C@@](C)(O)[C@H](OC(N)=O)[C@H]1O[C@@H]1O[C@H](CO[C@@H]2O[C@H](CO)[C@@H](O)[C@H](O)[C@H]2O)[C@@H](O[C@@H]2O[C@H](C)[C@@H](O[C@@H]3O[C@H](C(=O)NC4=C(O)CCC4=O)[C@H](O)[C@H](O)[C@H]3O)[C@H](O)[C@H]2NC(C)=O)[C@H](O)[C@H]1NC(C)=O)C(=O)O` [MOENOMYCIN A]: the affinity in experiment [2], expressed as Kd, was 25 nM. This molecule yielded an MIC in experiment [3] of 1.3 µM (≈ 2.06 µg/mL). In addition, the MIC90 in experiment [1] worked out at 2 µg/mL (≈ 1.26 µM). Molecule `CN(C)[C@@H]1C(O)=C(C(N)=O)C(=O)[C@@]2(O)C(O)=C3C(=O)c4c(O)cccc4[C@@](C)(O)[C@H]3C[C@@H]12` [TETRACYCLINE] registered an MIC90 in experiment [1] of 0.5 µg/mL (≈ 1.13 µM).
